Data from patent US20260217708A1, “FUSED BENZAZEPINE DERIVATIVES FOR USE IN THE TREATMENT OF CANCER AND EPILEPSY” (UCB BIOPHARMA SRL, priority 2023, published 2026).

Legend:
system Xc^− [1] = target: T1, system Xc^− (Homo sapiens, UniProt Q9UPY5); test: [^14C]L-Cystine uptake assay; type: cell-based; set-up: endogenous in cells; host or cells: H4 cells; conditions: H4 cells, sodium-free HEPES buffer, 0.5 μM L-[14C]Cystine and 4.5 μM L-Cystine, 1 hour at 37° C.; read-out: pIC50 [^14C] L-Cystine uptake assay (converted)
T1 sequence (Q9UPY5 1-501): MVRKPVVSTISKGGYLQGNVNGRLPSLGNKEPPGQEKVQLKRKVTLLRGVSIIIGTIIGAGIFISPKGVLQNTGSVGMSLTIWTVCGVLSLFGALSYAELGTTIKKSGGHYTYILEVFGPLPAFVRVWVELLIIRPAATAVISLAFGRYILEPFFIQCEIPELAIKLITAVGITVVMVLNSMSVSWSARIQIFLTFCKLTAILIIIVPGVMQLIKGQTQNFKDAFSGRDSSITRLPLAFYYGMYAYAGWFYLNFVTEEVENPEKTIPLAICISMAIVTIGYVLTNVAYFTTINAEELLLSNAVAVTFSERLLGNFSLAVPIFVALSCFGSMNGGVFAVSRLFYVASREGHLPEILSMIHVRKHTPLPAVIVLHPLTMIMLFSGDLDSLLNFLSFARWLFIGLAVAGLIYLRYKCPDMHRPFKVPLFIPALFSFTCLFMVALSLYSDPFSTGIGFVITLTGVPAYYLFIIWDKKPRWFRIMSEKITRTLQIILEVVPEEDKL
T1 sequence (P08195 1-529 partner): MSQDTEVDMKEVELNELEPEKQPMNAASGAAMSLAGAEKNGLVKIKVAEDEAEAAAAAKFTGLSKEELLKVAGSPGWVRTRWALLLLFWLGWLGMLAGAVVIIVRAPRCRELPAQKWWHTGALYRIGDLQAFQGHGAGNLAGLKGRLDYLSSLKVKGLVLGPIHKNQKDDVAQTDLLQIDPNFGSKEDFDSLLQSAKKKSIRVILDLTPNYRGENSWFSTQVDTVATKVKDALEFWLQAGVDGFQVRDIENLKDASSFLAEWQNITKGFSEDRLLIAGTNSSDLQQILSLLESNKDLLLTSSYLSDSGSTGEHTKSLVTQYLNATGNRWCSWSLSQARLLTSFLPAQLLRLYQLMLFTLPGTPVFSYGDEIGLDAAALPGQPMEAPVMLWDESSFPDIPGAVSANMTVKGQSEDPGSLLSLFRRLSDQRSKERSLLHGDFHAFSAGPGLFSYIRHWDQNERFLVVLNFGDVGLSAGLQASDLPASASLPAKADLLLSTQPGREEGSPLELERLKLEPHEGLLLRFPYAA
Procedure, shortened: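 H4 cells at 5×10^4 cells/well in sodium-free HEPES buffer were preincubated 15 min with compounds (1% DMSO). Uptake of 0.5 μM [14C]L-cystine plus 4.5 μM unlabelled L-cystine ran 1 hour at 37° C on scintillating plates. IC50 was set between 1% DMSO and 50 μM Erastin controls and expressed as pIC50.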

system Xc^− [2] = target: T1, system Xc^−; test: Cystine-induced glutamate release assay; type: cell-based; set-up: endogenous in cells; host or cells: H4 cells; conditions: H4 cells, sodium-free HEPES buffer, 50 μM L-Cystine, 2 hours, Amplex Red glutamate readout; read-out: pIC50 Cystine-induced glutamate release assay (converted)
Procedure, shortened: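 H4 cells in sodium-free HEPES buffer (pH 7.4), 2 days after plating; glutamate release induced with 50 μM L-cystine plus compound (1% DMSO), 2 h at 37 °C. Supernatant glutamate measured by Amplex Red fluorescence; IC50/pIC50 derived between 1% DMSO and 50 μM erastin controls.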

system Xc^− [3] = target: T1, system Xc^−; conditions: background statement, no data given; cited from earlier work

IC50 (system Xc^− [1]) [nM]	IC50 (system Xc^− [2]) [nM]	Structure (SMILES)	inhibition of the System Xc− antiporter (system Xc^− [3])	potency on human System Xc− function (system Xc^− [3])
15.8 to 39.8	39.8 to 100	Cc1cc2c(c(F)n1)-c1ncc(F)cc1CC(=O)N2CC(=O)Nc1ccc(Cl)c(F)c1 [#417, N-(4-chloro-3-fluoro-phenyl)-2-(5,15-difluoro-13-methyl-9-oxo-3,10,14-triazatricyclo[9.4.0.0^2,7]pentadeca-1(11),2,4,6,12,14-hexaen-10-yl)acetamide]		
15.8 to 39.8	15.8 to 39.8	O=C(CN1C(=O)Cc2ncccc2-c2c1cc(N1CC3(C1)CC3(F)F)nc2F)Nc1ccc(C(F)F)cc1 [#421, 2-[5-(2,2-difluoro-5-azaspiro[2.3]hexan-5-yl)-3-fluoro-9-oxo-4,8,12-triazatricyclo[9.4.0.0^2,7]pentadeca-1(11),2(7),3,5,12,14-hexaen-8-yl]-N-[4-(difluoromethyl)phenyl]acetamide]		
		O=C(O)c1cc(/N=N/c2ccc(S(=O)(=O)Nc3ccccn3)cc2)ccc1O [Sulfasalazine]	non-selective inhibitor	low
